Measured values: ChEMBL document CHEMBL1130905, “Asymmetric synthesis of antimitotic combretadioxolane with potent antitumor activity against multi-drug resistant cells” (Bioorg Med Chem Lett, 1998)

Legend:
Tubulin [1] = molecular target: T1, Tubulin (Sus scrofa, UniProt P02554+P02550); experiment: In vitro tubulin polymerization-inhibitory activity.; format: protein assay
PC-12 = experiment: Compound was evaluated for in vitro growth inhibition activity against multi drug resistant (MDR) PC-12 cell line.; format: functional; settings: Rattus norvegicus
PC-6 = experiment: Compound was evaluated for in vitro growth inhibition activity against sensitive PC-6 cell line.; format: functional, Rattus norvegicus
Tubulin [2] = molecular target: T1, Tubulin; experiment: In vitro tubulin polymerization-inhibitory activity; 4-6; format: protein assay

IC50 (Tubulin [1]) [nM] | IC50 (Tubulin [2]) [nM] | Compound | GI50 (PC-12) [nM] | GI50 (PC-6; Homo sapiens) [nM] | GI50 (PC-6; Rattus norvegicus) [nM]
> 50000 |  | COc1ccc([C@H]2OCO[C@@H]2c2cc(OC)c(OC)c(OC)c2)cc1O |  |  | 
 | 4000 | COc1ccc([C@@H]2OCO[C@H]2c2cc(OC)c(OC)c(OC)c2)cc1O | 5.19 | 5.41 | 
 |  | CC[C@]1(O)C[C@H]2CN(CCc3c([nH]c4ccccc34)[C@@](C(=O)OC)(c3cc4c(cc3OC)N(C=O)[C@H]3[C@@](O)(C(=O)OC)[C@H](OC(C)=O)[C@]5(CC)C=CCN6CC[C@]43[C@@H]65)C2)C1 [VINCRISTINE] | 104 | 1.14 | 
 |  | CISPLATIN | 300 |  | 563
